What all share (assay): Post-emergence test experiment (greenhouse pot, spray at 2-3 leaf stage)
What all share (type): in vivo
What all share (conditions): 1000 g/ha; post-emergence spray at 2-3 leaf stage; assessed after 3 weeks; fresh weight inhibition rate

For assay [1], the system named is Monochoria vaginalis. The essentials: (§1)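 Weed seeds sown in soil-filled pots in greenhouse, sprayed at 2-3 leaf stage (2 weeks after sowing) with compound in acetone/tween-80 plus methyl oleate emulsible concentrate (1.5 L/ha) diluted in water. Fresh-weight growth inhibition scored after 3 weeks on 0-5 scale (5: >85%, 0: <5%).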
For assay [2], the system named is Galium spurium. The gist of the method:
as §1

The test system of assay [3] is Abutilon theophrasti. The essentials:
as §1

Assay [4] concerns Digitaria sanguinalis. The gist of the method:
as §1

For assay [5], the system named is Echinochloa crusgalli. The essentials: as §1

On to `CC(Oc1nc(F)c(Cl)c(N)c1Cl)C(=O)OCc1ccc(C#N)cc1` (stereo not drawn) [Compound 91], for which the “Activity level (growth inhibition rate) Monochoria Vaginalis” value in assay [1] is reported as 5 (Level 5: the growth inhibition rate is greater than 85%). In assay [2], the “Activity level (growth inhibition rate) Galium spurium” value is 5 (Level 5: the growth inhibition rate is greater than 85%). The “Activity level (growth inhibition rate) Abutilon theophrasti” value in assay [3] is 5 (Level 5: the growth inhibition rate is greater than 85%). For the same compound, the “Activity level (growth inhibition rate) Digitaria sanguinalis” value in assay [4] is 5 (Level 5: the growth inhibition rate is greater than 85%). For the same compound, the “Activity level (growth inhibition rate) Echinochloa crusgalli” value in assay [5] is reported as 5 (Level 5: the growth inhibition rate is greater than 85%).

In the case of `CSc1cccc(COC(=O)C(C)Oc2nc(F)c(Cl)c(N)c2Cl)c1` (stereo not drawn) [Compound 92], in assay [1], the “Activity level (growth inhibition rate) Monochoria Vaginalis” value was 5 (Level 5: the growth inhibition rate is greater than 85%). For the same compound, the “Activity level (growth inhibition rate) Galium spurium” value in assay [2] is 5 (Level 5: the growth inhibition rate is greater than 85%). For the same compound, the “Activity level (growth inhibition rate) Abutilon theophrasti” value in assay [3] was 5 (Level 5: the growth inhibition rate is greater than 85%). For the same compound, the “Activity level (growth inhibition rate) Digitaria sanguinalis” value in assay [4] is given as 5 (Level 5: the growth inhibition rate is greater than 85%). The “Activity level (growth inhibition rate) Echinochloa crusgalli” value in assay [5] is given as 5 (Level 5: the growth inhibition rate is greater than 85%).

With `CC(Oc1nc(F)c(Cl)c(N)c1Cl)C(=O)OCc1ccc(N(C)C)cc1` (stereo not drawn) [Compound 93], in assay [1], the “Activity level (growth inhibition rate) Monochoria Vaginalis” value is recorded as 5 (Level 5: the growth inhibition rate is greater than 85%). Further, the “Activity level (growth inhibition rate) Galium spurium” value in assay [2] is 5 (Level 5: the growth inhibition rate is greater than 85%). In addition, in assay [3], the “Activity level (growth inhibition rate) Abutilon theophrasti” value was 5 (Level 5: the growth inhibition rate is greater than 85%). Moreover, in assay [4], the “Activity level (growth inhibition rate) Digitaria sanguinalis” value was 5 (Level 5: the growth inhibition rate is greater than 85%). Further, in assay [5], the “Activity level (growth inhibition rate) Echinochloa crusgalli” value is 5 (Level 5: the growth inhibition rate is greater than 85%).

With `CC(Oc1nc(F)c(Cl)c(N)c1Cl)C(=O)SCc1ccccc1N=[N+]=[N-]` (stereo not drawn) [Compound 94], in assay [1], the “Activity level (growth inhibition rate) Monochoria Vaginalis” value is recorded as 5 (Level 5: the growth inhibition rate is greater than 85%). The “Activity level (growth inhibition rate) Galium spurium” value in assay [2] is recorded as 5 (Level 5: the growth inhibition rate is greater than 85%). Further, the “Activity level (growth inhibition rate) Abutilon theophrasti” value in assay [3] is 5 (Level 5: the growth inhibition rate is greater than 85%). Besides, in assay [4], the “Activity level (growth inhibition rate) Digitaria sanguinalis” value was 5 (Level 5: the growth inhibition rate is greater than 85%). Also, the “Activity level (growth inhibition rate) Echinochloa crusgalli” value in assay [5] is reported as 5 (Level 5: the growth inhibition rate is greater than 85%).

In the case of `CC(Oc1nc(F)c(Cl)c(N)c1Cl)C(=O)SCc1ccc(C#CCF)cc1` (stereo not drawn) [Compound 95], the “Activity level (growth inhibition rate) Monochoria Vaginalis” value in assay [1] was 5 (Level 5: the growth inhibition rate is greater than 85%). Moreover, in assay [2], the “Activity level (growth inhibition rate) Galium spurium” value is 5 (Level 5: the growth inhibition rate is greater than 85%). For the same compound, the “Activity level (growth inhibition rate) Abutilon theophrasti” value in assay [3] is 5 (Level 5: the growth inhibition rate is greater than 85%). For the same compound, the “Activity level (growth inhibition rate) Digitaria sanguinalis” value in assay [4] is recorded as 5 (Level 5: the growth inhibition rate is greater than 85%). The “Activity level (growth inhibition rate) Echinochloa crusgalli” value in assay [5] is given as 5 (Level 5: the growth inhibition rate is greater than 85%).

For the compound `CC(Oc1nc(F)c(Cl)c(N)c1Cl)C(=O)OCc1cccc(OCC(F)(F)F)c1` (stereo not drawn) [Compound 96], the “Activity level (growth inhibition rate) Monochoria Vaginalis” value in assay [1] is on record as 5 (Level 5: the growth inhibition rate is greater than 85%). Moreover, the “Activity level (growth inhibition rate) Galium spurium” value in assay [2] is recorded as 5 (Level 5: the growth inhibition rate is greater than 85%). Also, the “Activity level (growth inhibition rate) Abutilon theophrasti” value in assay [3] is given as 5 (Level 5: the growth inhibition rate is greater than 85%). In addition, the “Activity level (growth inhibition rate) Digitaria sanguinalis” value in assay [4] was 5 (Level 5: the growth inhibition rate is greater than 85%). The “Activity level (growth inhibition rate) Echinochloa crusgalli” value in assay [5] is listed as 5 (Level 5: the growth inhibition rate is greater than 85%).

For the compound `CC(=O)Nc1ccc(CSC(=O)C(C)Oc2nc(F)c(Cl)c(N)c2Cl)cc1` (stereo not drawn) [Compound 97], the “Activity level (growth inhibition rate) Monochoria Vaginalis” value in assay [1] is 5 (Level 5: the growth inhibition rate is greater than 85%). Moreover, the “Activity level (growth inhibition rate) Galium spurium” value in assay [2] is recorded as 5 (Level 5: the growth inhibition rate is greater than 85%). In addition, the “Activity level (growth inhibition rate) Abutilon theophrasti” value in assay [3] was 5 (Level 5: the growth inhibition rate is greater than 85%). In addition, the “Activity level (growth inhibition rate) Digitaria sanguinalis” value in assay [4] is 5 (Level 5: the growth inhibition rate is greater than 85%). Also, in assay [5], the “Activity level (growth inhibition rate) Echinochloa crusgalli” value was 5 (Level 5: the growth inhibition rate is greater than 85%).

Consider `COC(=O)c1ccc(COC(=O)C(C)Oc2nc(F)c(Cl)c(N)c2Cl)cc1` (stereo not drawn) [Compound 98], for which the “Activity level (growth inhibition rate) Monochoria Vaginalis” value in assay [1] was 5 (Level 5: the growth inhibition rate is greater than 85%). Also, the “Activity level (growth inhibition rate) Galium spurium” value in assay [2] is 5 (Level 5: the growth inhibition rate is greater than 85%). For the same compound, in assay [3], the “Activity level (growth inhibition rate) Abutilon theophrasti” value is given as 5 (Level 5: the growth inhibition rate is greater than 85%). Also, in assay [4], the “Activity level (growth inhibition rate) Digitaria sanguinalis” value is on record as 5 (Level 5: the growth inhibition rate is greater than 85%). Also, in assay [5], the “Activity level (growth inhibition rate) Echinochloa crusgalli” value is 5 (Level 5: the growth inhibition rate is greater than 85%).

Take `CC(=O)Cc1ccc(COC(=O)C(C)Oc2nc(F)c(Cl)c(N)c2Cl)cc1` (stereo not drawn) [Compound 99]: the “Activity level (growth inhibition rate) Monochoria Vaginalis” value in assay [1] is given as 5 (Level 5: the growth inhibition rate is greater than 85%). Moreover, the “Activity level (growth inhibition rate) Galium spurium” value in assay [2] is 5 (Level 5: the growth inhibition rate is greater than 85%). The “Activity level (growth inhibition rate) Abutilon theophrasti” value in assay [3] is 5 (Level 5: the growth inhibition rate is greater than 85%). Moreover, the “Activity level (growth inhibition rate) Digitaria sanguinalis” value in assay [4] is 5 (Level 5: the growth inhibition rate is greater than 85%). For the same compound, the “Activity level (growth inhibition rate) Echinochloa crusgalli” value in assay [5] is reported as 5 (Level 5: the growth inhibition rate is greater than 85%).

For `CCOCc1cccc(C(C)OC(=O)C(C)Oc2nc(F)c(Cl)c(N)c2Cl)c1` (stereo not drawn) [Compound 100], the “Activity level (growth inhibition rate) Monochoria Vaginalis” value in assay [1] is on record as 5 (Level 5: the growth inhibition rate is greater than 85%). In assay [2], the “Activity level (growth inhibition rate) Galium spurium” value was 5 (Level 5: the growth inhibition rate is greater than 85%). Moreover, the “Activity level (growth inhibition rate) Abutilon theophrasti” value in assay [3] is reported as 5 (Level 5: the growth inhibition rate is greater than 85%). For the same compound, the “Activity level (growth inhibition rate) Digitaria sanguinalis” value in assay [4] was 5 (Level 5: the growth inhibition rate is greater than 85%). In addition, in assay [5], the “Activity level (growth inhibition rate) Echinochloa crusgalli” value is on record as 5 (Level 5: the growth inhibition rate is greater than 85%).

As to `CC(Oc1nc(F)c(Cl)c(N)c1Cl)C(=O)OCc1cccc(CC(N)=O)c1` (stereo not drawn) [Compound 101], the “Activity level (growth inhibition rate) Monochoria Vaginalis” value in assay [1] is 5 (Level 5: the growth inhibition rate is greater than 85%). For the same compound, the “Activity level (growth inhibition rate) Galium spurium” value in assay [2] is on record as 5 (Level 5: the growth inhibition rate is greater than 85%). In addition, the “Activity level (growth inhibition rate) Abutilon theophrasti” value in assay [3] is 5 (Level 5: the growth inhibition rate is greater than 85%). Further, the “Activity level (growth inhibition rate) Digitaria sanguinalis” value in assay [4] is 5 (Level 5: the growth inhibition rate is greater than 85%). In assay [5], the “Activity level (growth inhibition rate) Echinochloa crusgalli” value is recorded as 5 (Level 5: the growth inhibition rate is greater than 85%).

Take `CC(Oc1nc(F)c(Cl)c(N)c1Cl)C(=O)OCc1ccc(C2CC2Cl)cc1` (stereo not drawn) [Compound 102]: the “Activity level (growth inhibition rate) Monochoria Vaginalis” value in assay [1] was 5 (Level 5: the growth inhibition rate is greater than 85%). For the same compound, in assay [2], the “Activity level (growth inhibition rate) Galium spurium” value is 5 (Level 5: the growth inhibition rate is greater than 85%). In assay [3], the “Activity level (growth inhibition rate) Abutilon theophrasti” value is on record as 5 (Level 5: the growth inhibition rate is greater than 85%). Moreover, the “Activity level (growth inhibition rate) Digitaria sanguinalis” value in assay [4] is listed as 5 (Level 5: the growth inhibition rate is greater than 85%). In addition, the “Activity level (growth inhibition rate) Echinochloa crusgalli” value in assay [5] is 5 (Level 5: the growth inhibition rate is greater than 85%).

Take `CCC(=O)Cc1ccc(CSC(=O)C(C)Oc2nc(F)c(Cl)c(N)c2Cl)cc1` (stereo not drawn) [Compound 103]: the “Activity level (growth inhibition rate) Monochoria Vaginalis” value in assay [1] is reported as 5 (Level 5: the growth inhibition rate is greater than 85%). Besides, in assay [2], the “Activity level (growth inhibition rate) Galium spurium” value is given as 5 (Level 5: the growth inhibition rate is greater than 85%). Moreover, the “Activity level (growth inhibition rate) Abutilon theophrasti” value in assay [3] is 5 (Level 5: the growth inhibition rate is greater than 85%). Further, the “Activity level (growth inhibition rate) Digitaria sanguinalis” value in assay [4] is reported as 5 (Level 5: the growth inhibition rate is greater than 85%). The “Activity level (growth inhibition rate) Echinochloa crusgalli” value in assay [5] is 5 (Level 5: the growth inhibition rate is greater than 85%).

For the compound `CC(=O)c1ccc(CCSC(=O)C(C)Oc2nc(F)c(Cl)c(N)c2Cl)cc1` (stereo not drawn) [Compound 104], in assay [1], the “Activity level (growth inhibition rate) Monochoria Vaginalis” value is 5 (Level 5: the growth inhibition rate is greater than 85%). For the same compound, the “Activity level (growth inhibition rate) Galium spurium” value in assay [2] is 5 (Level 5: the growth inhibition rate is greater than 85%). In addition, the “Activity level (growth inhibition rate) Abutilon theophrasti” value in assay [3] was 5 (Level 5: the growth inhibition rate is greater than 85%). For the same compound, the “Activity level (growth inhibition rate) Digitaria sanguinalis” value in assay [4] was 5 (Level 5: the growth inhibition rate is greater than 85%). For the same compound, the “Activity level (growth inhibition rate) Echinochloa crusgalli” value in assay [5] is 5 (Level 5: the growth inhibition rate is greater than 85%).

As to `CC(Oc1nc(F)c(Cl)c(N)c1Cl)C(=O)OCc1ccc(S(C)(=O)=O)cc1` (stereo not drawn) [Compound 105], the “Activity level (growth inhibition rate) Monochoria Vaginalis” value in assay [1] is reported as 5 (Level 5: the growth inhibition rate is greater than 85%). For the same compound, in assay [2], the “Activity level (growth inhibition rate) Galium spurium” value was 5 (Level 5: the growth inhibition rate is greater than 85%). Also, in assay [3], the “Activity level (growth inhibition rate) Abutilon theophrasti” value is 5 (Level 5: the growth inhibition rate is greater than 85%). For the same compound, the “Activity level (growth inhibition rate) Digitaria sanguinalis” value in assay [4] is listed as 5 (Level 5: the growth inhibition rate is greater than 85%). Further, the “Activity level (growth inhibition rate) Echinochloa crusgalli” value in assay [5] is 5 (Level 5: the growth inhibition rate is greater than 85%).

These data come from patent US12049450B2, “Pyridyloxy-carboxylate derivative and preparation method therefor, herbicidal composition, and use” (Qingdao Kingagroot Chemical Compound Co., Ltd., priority 2018, dated 2024).
